What was measured:
Japanese bulrush = test: Test Example 1: herbicidal activity, application before weed generation under submerged conditions (Table 16, symbol B); assay type: in vivo, Japanese bulrush (Schoenoplectus juncoides); conditions: 320 g/ha applied herbicide
Procedure, shortened: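 Alluvial soil was flooded to 4 cm depth, weed seeds were sown mixed and 2.5-leaf rice seedlings were transplanted. On sowing day, the compound's emulsion, diluted in water to a set dose, was applied to the water surface. Plants grew at 25–30 °C and were scored 0–5 after three weeks.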

late watergrass = test: Test Example 2: herbicidal activity, application during weed generation under submerged conditions (Table 17, symbol A); assay type: in vivo, late watergrass (Echinochloa oryzicola); conditions: AAH 320 g/ha; application during weed generation, submerged conditions
Procedure, shortened: (§1)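 Effect on each weed is rated three weeks post-treatment, using the same scoring criteria as the preceding test. Plants grow from mixed-sown seed in flooded alluvial soil (4 cm water) at 25° C. to 30° C., and are treated at one to two leaves with diluted emulsion dropped onto the water.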

oval-leafed pondweed = test: Test Example 2: herbicidal activity, application during weed generation under submerged conditions (Table 17, symbol C); assay type: in vivo, oval-leafed pondweed (Monochoria vaginalis); conditions: AAH 320 g/ha; application during weed generation, submerged conditions
Procedure, shortened: as §1

Chinese sprangletop = test: Test Example 3: herbicidal effect by foliage application, Wagner pot (Table 18, symbol D); assay type: in vivo, chinese sprangletop (Leptochloa chinensis); conditions: amount of applied herbicide 320 g/ha
Procedure, shortened: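 Plants were sown in alluvial soil held under 0.1–0.5 cm standing water and grown 14 days in a greenhouse at 25–30 °C. An emulsifiable formulation, water-diluted to the set dose, was then sprayed onto the foliage, and effects were scored three weeks later using previously defined criteria.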

southern crabgrass = test: Test Example 4: herbicidal effect by soil treatment (Table 19, symbol F); assay type: in vivo, southern crabgrass (Digitaria ciliaris); conditions: amount of applied herbicide 320 g/ha
Procedure, shortened: (§2)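 In this soil treatment, the formulated compound reached the seeds only through the soil: seeds were buried about 1.5 cm deep in sterilized diluvial soil, then the diluted emulsion was sprayed over the surface. After three weeks at 25° C. to 30° C. in a greenhouse, effects were graded on criteria from an earlier test.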

wild oat = test: Test Example 4: herbicidal effect by soil treatment (Table 19, symbol I); assay type: in vivo, wild oat (Avena fatua); conditions: amount of applied herbicide 320 g/ha
Procedure, shortened: as §2

blackgrass = test: Test Example 4: herbicidal effect by soil treatment (Table 19, symbol J); assay type: in vivo, blackgrass (Alopecurus myosuroides); conditions: amount of applied herbicide 320 g/ha
Procedure, shortened: as §2

Italian ryegrass [1] = test: Test Example 4: herbicidal effect by soil treatment (Table 19, symbol K); assay type: in vivo, Italian ryegrass (Lolium multiflorum); conditions: amount of applied herbicide 320 g/ha
Procedure, shortened: as §2

windgrass = test: Test Example 4: herbicidal effect by soil treatment (Table 19, symbol L); assay type: in vivo, windgrass (Apera spica-venti); conditions: amount of applied herbicide 320 g/ha
Procedure, shortened: as §2

lambsquarters [2] = test: Test Example 4: herbicidal effect by soil treatment (Table 19, symbol O); assay type: in vivo, lambsquarters (Chenopodium album); conditions: amount of applied herbicide 320 g/ha
Procedure, shortened: as §2

green foxtail = test: Test Example 5: herbicidal effect by foliage application, plastic box (Table 20, symbol G); assay type: in vivo, green foxtail (Setaria viridis); conditions: foliage application, AAH 320 g/ha, evaluated three weeks after application
Procedure, shortened: (§3)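 Plants were sown into sterilized diluvial soil under about 1.5 cm cover and kept in a greenhouse at 25° C. to 30° C. Fourteen days on, foliage received an even spray of the diluted emulsion. Herbicidal or crop effect was judged three weeks afterwards.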

Italian ryegrass [3] = test: Test Example 5: herbicidal effect by foliage application, plastic box (Table 20, symbol K); assay type: in vivo, Italian ryegrass (Lolium multiflorum); conditions: foliage application, AAH 320 g/ha, evaluated three weeks after application
Procedure, shortened: as §3

velvetleaf = test: Test Example 5: herbicidal effect by foliage application, plastic box (Table 20, symbol M); assay type: in vivo, velvetleaf (Abutilon theophrasti); conditions: foliage application, AAH 320 g/ha, evaluated three weeks after application
Procedure, shortened: as §3

redroot pigweed = test: Test Example 5: herbicidal effect by foliage application, plastic box (Table 20, symbol N); assay type: in vivo, redroot pigweed (Amaranthus retroflexus); conditions: foliage application, AAH 320 g/ha, evaluated three weeks after application
Procedure, shortened: as §3

lambsquarters [4] = test: Test Example 5: herbicidal effect by foliage application, plastic box (Table 20, symbol O); assay type: in vivo, lambsquarters (Chenopodium album); conditions: foliage application, AAH 320 g/ha, evaluated three weeks after application
Procedure, shortened: as §3

chickweed = test: Test Example 5: herbicidal effect by foliage application, plastic box (Table 20, symbol P); assay type: in vivo, common chickweed (Stellaria media); conditions: foliage application, AAH 320 g/ha, evaluated three weeks after application
Procedure, shortened: as §3

SMILES: COCC(=O)Oc1c(C)nn(C)c(=O)c1-c1c(-c2ccc(OC(F)F)cc2)sc2ccc(F)cc12 [2-283]
- Herbicidal effect on B: Japanese bulrush (grade 0-5) (Japanese bulrush): 5 (Herbicidal rate of 90% or more (almost completely withered))
- herbicidal effect rating, A: late watergrass (late watergrass): 5 (Herbicidal rate of 90% or more (almost completely withered))
- herbicidal effect rating, C: oval-leafed pondweed (oval-leafed pondweed): 4 (Herbicidal rate of 70% or more and less than 90%)
- herbicidal effect on D: Chinese sprangletop (Chinese sprangletop): 4 (Herbicidal rate of 70% or more and less than 90%)
- herbicidal effect on F: southern crabgrass (southern crabgrass): 5 (Herbicidal rate of 90% or more (almost completely withered))
- herbicidal effect on I: wild oat (wild oat): 0 (Herbicidal rate of 5% or less (almost no effect))
- herbicidal effect on J: blackgrass (blackgrass): 3 (Herbicidal rate of 40% or more and less than 70%)
- herbicidal effect on K: Italian ryegrass (Italian ryegrass [1]): 5 (Herbicidal rate of 90% or more (almost completely withered))
- herbicidal effect on L: windgrass (windgrass): 4 (Herbicidal rate of 70% or more and less than 90%)
- herbicidal effect on O: lambsquarters (lambsquarters [2]): 5 (Herbicidal rate of 90% or more (almost completely withered))
- G: green foxtail, herbicidal effect (criteria 0-5) (green foxtail): 5 (Herbicidal rate of 90% or more (almost completely withered))
- K: Italian ryegrass, herbicidal effect (criteria 0-5) (Italian ryegrass [3]): 5 (Herbicidal rate of 90% or more (almost completely withered))
- M: velvetleaf, herbicidal effect (criteria 0-5) (velvetleaf): 5 (Herbicidal rate of 90% or more (almost completely withered))
- N: redroot pigweed, herbicidal effect (criteria 0-5) (redroot pigweed): 5 (Herbicidal rate of 90% or more (almost completely withered))
- O: lambsquarters, herbicidal effect (criteria 0-5) (lambsquarters [4]): 5 (Herbicidal rate of 90% or more (almost completely withered))
- P: chickweed, herbicidal effect (criteria 0-5) (chickweed): 5 (Herbicidal rate of 90% or more (almost completely withered))

SMILES: Cc1nn(C)c(=O)c(-c2c(-c3ccc(OC(F)F)cc3)sc3ccc(F)cc23)c1OC(=O)c1ccc(Cl)cc1 [2-286]
- Herbicidal effect on B: Japanese bulrush (grade 0-5) (Japanese bulrush): 3 (Herbicidal rate of 40% or more and less than 70%)
- herbicidal effect rating, A: late watergrass (late watergrass): 3 (Herbicidal rate of 40% or more and less than 70%)
- herbicidal effect rating, C: oval-leafed pondweed (oval-leafed pondweed): 3 (Herbicidal rate of 40% or more and less than 70%)
- herbicidal effect on D: Chinese sprangletop (Chinese sprangletop): 4 (Herbicidal rate of 70% or more and less than 90%)
- herbicidal effect on F: southern crabgrass (southern crabgrass): 0 (Herbicidal rate of 5% or less (almost no effect))
- herbicidal effect on I: wild oat (wild oat): 0 (Herbicidal rate of 5% or less (almost no effect))
- herbicidal effect on J: blackgrass (blackgrass): 0 (Herbicidal rate of 5% or less (almost no effect))
- herbicidal effect on K: Italian ryegrass (Italian ryegrass [1]): 5 (Herbicidal rate of 90% or more (almost completely withered))
- herbicidal effect on L: windgrass (windgrass): 0 (Herbicidal rate of 5% or less (almost no effect))
- herbicidal effect on O: lambsquarters (lambsquarters [2]): 3 (Herbicidal rate of 40% or more and less than 70%)
- G: green foxtail, herbicidal effect (criteria 0-5) (green foxtail): 5 (Herbicidal rate of 90% or more (almost completely withered))
- K: Italian ryegrass, herbicidal effect (criteria 0-5) (Italian ryegrass [3]): 5 (Herbicidal rate of 90% or more (almost completely withered))
- M: velvetleaf, herbicidal effect (criteria 0-5) (velvetleaf): 5 (Herbicidal rate of 90% or more (almost completely withered))
- N: redroot pigweed, herbicidal effect (criteria 0-5) (redroot pigweed): 5 (Herbicidal rate of 90% or more (almost completely withered))
- O: lambsquarters, herbicidal effect (criteria 0-5) (lambsquarters [4]): 5 (Herbicidal rate of 90% or more (almost completely withered))
- P: chickweed, herbicidal effect (criteria 0-5) (chickweed): 5 (Herbicidal rate of 90% or more (almost completely withered))

SMILES: Cc1nn(C)c(=O)c(-c2c(-c3ccc(OC(F)F)cc3)sc3ccc(F)cc23)c1OC(=O)C1CCCO1 (centres unmarked) [2-289]
- Herbicidal effect on B: Japanese bulrush (grade 0-5) (Japanese bulrush): 3 (Herbicidal rate of 40% or more and less than 70%)
- herbicidal effect rating, A: late watergrass (late watergrass): 3 (Herbicidal rate of 40% or more and less than 70%)
- herbicidal effect rating, C: oval-leafed pondweed (oval-leafed pondweed): 4 (Herbicidal rate of 70% or more and less than 90%)
- herbicidal effect on D: Chinese sprangletop (Chinese sprangletop): 3 (Herbicidal rate of 40% or more and less than 70%)
- herbicidal effect on F: southern crabgrass (southern crabgrass): 5 (Herbicidal rate of 90% or more (almost completely withered))
- herbicidal effect on I: wild oat (wild oat): 2 (Herbicidal rate of 20% or more and less than 40%)
- herbicidal effect on J: blackgrass (blackgrass): 5 (Herbicidal rate of 90% or more (almost completely withered))
- herbicidal effect on K: Italian ryegrass (Italian ryegrass [1]): 5 (Herbicidal rate of 90% or more (almost completely withered))
- herbicidal effect on L: windgrass (windgrass): 4 (Herbicidal rate of 70% or more and less than 90%)
- herbicidal effect on O: lambsquarters (lambsquarters [2]): 5 (Herbicidal rate of 90% or more (almost completely withered))
- G: green foxtail, herbicidal effect (criteria 0-5) (green foxtail): 5 (Herbicidal rate of 90% or more (almost completely withered))
- K: Italian ryegrass, herbicidal effect (criteria 0-5) (Italian ryegrass [3]): 5 (Herbicidal rate of 90% or more (almost completely withered))
- M: velvetleaf, herbicidal effect (criteria 0-5) (velvetleaf): 5 (Herbicidal rate of 90% or more (almost completely withered))
- N: redroot pigweed, herbicidal effect (criteria 0-5) (redroot pigweed): 5 (Herbicidal rate of 90% or more (almost completely withered))
- O: lambsquarters, herbicidal effect (criteria 0-5) (lambsquarters [4]): 5 (Herbicidal rate of 90% or more (almost completely withered))
- P: chickweed, herbicidal effect (criteria 0-5) (chickweed): 5 (Herbicidal rate of 90% or more (almost completely withered))

SMILES: CCOC(=O)Oc1c(C)nn(C)c(=O)c1-c1c(-c2ccc(OC(F)F)cc2)sc2ccc(F)cc12 [2-292]
- Herbicidal effect on B: Japanese bulrush (grade 0-5) (Japanese bulrush): 5 (Herbicidal rate of 90% or more (almost completely withered))
- herbicidal effect rating, A: late watergrass (late watergrass): 5 (Herbicidal rate of 90% or more (almost completely withered))
- herbicidal effect rating, C: oval-leafed pondweed (oval-leafed pondweed): 5 (Herbicidal rate of 90% or more (almost completely withered))
- herbicidal effect on D: Chinese sprangletop (Chinese sprangletop): 4 (Herbicidal rate of 70% or more and less than 90%)
- herbicidal effect on F: southern crabgrass (southern crabgrass): 3 (Herbicidal rate of 40% or more and less than 70%)
- herbicidal effect on I: wild oat (wild oat): 0 (Herbicidal rate of 5% or less (almost no effect))
- herbicidal effect on J: blackgrass (blackgrass): 3 (Herbicidal rate of 40% or more and less than 70%)
- herbicidal effect on K: Italian ryegrass (Italian ryegrass [1]): 5 (Herbicidal rate of 90% or more (almost completely withered))
- herbicidal effect on L: windgrass (windgrass): 1 (Herbicidal rate of 5% or more and less than 20%)
- herbicidal effect on O: lambsquarters (lambsquarters [2]): 5 (Herbicidal rate of 90% or more (almost completely withered))
- G: green foxtail, herbicidal effect (criteria 0-5) (green foxtail): 5 (Herbicidal rate of 90% or more (almost completely withered))
- K: Italian ryegrass, herbicidal effect (criteria 0-5) (Italian ryegrass [3]): 5 (Herbicidal rate of 90% or more (almost completely withered))
- M: velvetleaf, herbicidal effect (criteria 0-5) (velvetleaf): 5 (Herbicidal rate of 90% or more (almost completely withered))
- N: redroot pigweed, herbicidal effect (criteria 0-5) (redroot pigweed): 5 (Herbicidal rate of 90% or more (almost completely withered))
- O: lambsquarters, herbicidal effect (criteria 0-5) (lambsquarters [4]): 5 (Herbicidal rate of 90% or more (almost completely withered))
- P: chickweed, herbicidal effect (criteria 0-5) (chickweed): 5 (Herbicidal rate of 90% or more (almost completely withered))

SMILES: Cc1nn(C)c(=O)c(-c2c(-c3ccc(OC(F)F)cc3)sc3ccc(F)cc23)c1OC(=O)OCCCl [2-293]
- Herbicidal effect on B: Japanese bulrush (grade 0-5) (Japanese bulrush): 5 (Herbicidal rate of 90% or more (almost completely withered))
- herbicidal effect rating, A: late watergrass (late watergrass): 4 (Herbicidal rate of 70% or more and less than 90%)
- herbicidal effect rating, C: oval-leafed pondweed (oval-leafed pondweed): 4 (Herbicidal rate of 70% or more and less than 90%)
- herbicidal effect on D: Chinese sprangletop (Chinese sprangletop): 3 (Herbicidal rate of 40% or more and less than 70%)
- herbicidal effect on F: southern crabgrass (southern crabgrass): 4 (Herbicidal rate of 70% or more and less than 90%)
- herbicidal effect on I: wild oat (wild oat): 0 (Herbicidal rate of 5% or less (almost no effect))
- herbicidal effect on J: blackgrass (blackgrass): 5 (Herbicidal rate of 90% or more (almost completely withered))
- herbicidal effect on K: Italian ryegrass (Italian ryegrass [1]): 5 (Herbicidal rate of 90% or more (almost completely withered))
- herbicidal effect on L: windgrass (windgrass): 4 (Herbicidal rate of 70% or more and less than 90%)
- herbicidal effect on O: lambsquarters (lambsquarters [2]): 5 (Herbicidal rate of 90% or more (almost completely withered))
- G: green foxtail, herbicidal effect (criteria 0-5) (green foxtail): 5 (Herbicidal rate of 90% or more (almost completely withered))
- K: Italian ryegrass, herbicidal effect (criteria 0-5) (Italian ryegrass [3]): 5 (Herbicidal rate of 90% or more (almost completely withered))
- M: velvetleaf, herbicidal effect (criteria 0-5) (velvetleaf): 5 (Herbicidal rate of 90% or more (almost completely withered))
- N: redroot pigweed, herbicidal effect (criteria 0-5) (redroot pigweed): 5 (Herbicidal rate of 90% or more (almost completely withered))
- O: lambsquarters, herbicidal effect (criteria 0-5) (lambsquarters [4]): 5 (Herbicidal rate of 90% or more (almost completely withered))
- P: chickweed, herbicidal effect (criteria 0-5) (chickweed): 5 (Herbicidal rate of 90% or more (almost completely withered))

— patent US20230085307A1, “PYRIDAZINONE COMPOUND AND HERBICIDE” (NISSAN CHEMICAL CORPORATION, priority 2019, published 2023)
